Like-named read-outs stand apart in the source and are kept apart here. Where a SMILES comes first, the peptide text is derived from it. [ ]: non-standard residue; d: D form. Cit = NC(=O)NCCC[C@H](N)C(=O)O
Target: HLA-A*02:01 (Homo sapiens, UniProt P04439, D140Y/D185E/D98H/E176V/E277Q/G131W/G231S/I119V/I121R/I166T/I218V/L300P/L318F/N151K/N90K/P208A/P217A/Q86G/Q94H/R138H/R169H/T345S)
Assay: HLA-peptide competition binding assay, A*02:01
[1] = unmodified (wild type) insulin-derived peptide, radiolabeled ligand competition, purified MHC, two-day incubation, three or more independent experiments, read-out: A*02:01 binding, WT
[2] = unmodified (WT) insulin peptide, competition binding assay, a dash indicates IC50 >40,000 nM, read-out: A*02:01 binding (IC50 nM) WT
[3] = post-translationally modified insulin-derived peptide, radiolabeled ligand competition, purified MHC, two-day incubation, three or more independent experiments, read-out: A*02:01 binding, Modified
[4] = post-translationally modified insulin peptide, competition binding assay, a dash indicates IC50 >40,000 nM, read-out: A*02:01 binding (IC50 nM) Modified
[5] = read-out: A*02:01 binding (IC50 nM) Modified

CC(C)C[C@H](NC(=O)[C@H](C)N)C(=O)N[C@@H](Cc1ccc(O)cc1)C(=O)N[C@@H](CC(C)C)C(=O)N[C@H](C(=O)N[C@@H](CS)C(=O)NCC(=O)N[C@@H](CCC(=O)O)C(=O)N[C@@H](CCCNC(=N)N)C(=O)NCC(=O)O)C(C)C
IC50 [1]: 8780 nM

CC(C)C[C@H](NC(=O)[C@H](C)N)C(=O)N[C@@H](Cc1ccc(O)cc1)C(=O)N[C@@H](CC(C)C)C(=O)N[C@H](C(=O)N[C@@H](CS)C(=O)NCC(=O)N[C@@H](CCC(=O)O)C(=O)N[C@@H](CCCNC(N)=O)C(=O)O)C(C)C
IC50: 1240 nM

C[C@@H](O)[C@H](NC(=O)[C@H](CCCCN)NC(=O)[C@@H]1CCCN1C(=O)[C@@H](NC(=O)[C@H](Cc1ccc(O)cc1)NC(=O)[C@H](Cc1ccccc1)NC(=O)[C@H](Cc1ccccc1)NC(=O)CNC(=O)[C@H](CCCNC(=N)N)NC(=O)[C@@H](N)CCC(=O)O)[C@@H](C)O)C(=O)O
IC50 [2]: > 40000 nM
IC50 [1]: > 40000 nM

C[C@@H](O)[C@H](NC(=O)[C@H](Cc1ccc(O)cc1)NC(=O)[C@H](Cc1ccccc1)NC(=O)[C@H](Cc1ccccc1)NC(=O)CNC(=O)[C@H](CCCNC(=N)N)NC(=O)[C@H](CCC(=O)O)NC(=O)CN)C(=O)N1CCC[C@H]1C(=O)N[C@@H](CCCCN)C(=O)O
IC50 [2]: > 40000 nM

C[C@@H](O)[C@H](NC(=O)[C@H](CCCCN)NC(=O)[C@@H]1CCCN1C(=O)[C@@H](NC(=O)[C@H](Cc1ccc(O)cc1)NC(=O)[C@H](Cc1ccccc1)NC(=O)[C@H](Cc1ccccc1)NC(=O)CN)[C@@H](C)O)C(=O)N[C@@H](CCCNC(=N)N)C(=O)O
IC50 (read-out: A*02:01 binding (IC50 nM) WT): 12200 nM

C[C@@H](O)[C@H](NC(=O)[C@H](CCCCN)NC(=O)[C@@H]1CCCN1C(=O)[C@@H](NC(=O)[C@H](Cc1ccc(O)cc1)NC(=O)[C@H](Cc1ccccc1)NC(=O)[C@H](Cc1ccccc1)NC(=O)CN)[C@@H](C)O)C(=O)N[C@@H](CCCNC(=N)N)C(=O)N[C@@H](CCCNC(=N)N)C(=O)O
IC50 [2]: > 40000 nM

C[C@@H](O)[C@H](NC(=O)[C@H](CCCCN)NC(=O)[C@@H]1CCCN1C(=O)[C@@H](NC(=O)[C@H](Cc1ccc(O)cc1)NC(=O)[C@H](Cc1ccccc1)NC(=O)[C@H](Cc1ccccc1)NC(=O)CN)[C@@H](C)O)C(=O)N[C@@H](CCCNC(N)=O)C(=O)O
IC50: 38400 nM

CC(C)C[C@H](NC(=O)[C@H](Cc1ccc(O)cc1)NC(=O)[C@@H](N)CC(C)C)C(=O)N[C@H](C(=O)N[C@@H](CS)C(=O)NCC(=O)N[C@@H](CCC(=O)O)C(=O)N[C@@H](CCCNC(N)=O)C(=O)NCC(=O)O)C(C)C
IC50 [3]: 12500 nM

C[C@@H](O)[C@H](NC(=O)[C@H](CCCCN)NC(=O)[C@@H]1CCCN1C(=O)[C@@H](NC(=O)[C@H](Cc1ccc(O)cc1)NC(=O)[C@H](Cc1ccccc1)NC(=O)[C@H](Cc1ccccc1)NC(=O)CNC(=O)[C@@H](N)CCCNC(=N)N)[C@@H](C)O)C(=O)O
IC50 [2]: > 40000 nM
IC50 [1]: > 40000 nM

C[C@@H](O)[C@H](NC(=O)[C@H](CCCCN)NC(=O)[C@@H]1CCCN1C(=O)[C@@H](NC(=O)[C@H](Cc1ccc(O)cc1)NC(=O)[C@H](Cc1ccccc1)NC(=O)[C@H](Cc1ccccc1)NC(=O)CNC(=O)[C@@H](N)CCCNC(=N)N)[C@@H](C)O)C(=O)N[C@@H](CCCNC(=N)N)C(=O)O
IC50 [2]: > 40000 nM

C[C@@H](O)[C@H](NC(=O)[C@H](CCCCN)NC(=O)[C@@H]1CCCN1C(=O)[C@@H](NC(=O)[C@H](Cc1ccc(O)cc1)NC(=O)[C@H](Cc1ccccc1)NC(=O)[C@H](Cc1ccccc1)NC(=O)CNC(=O)[C@@H](N)CCCNC(N)=O)[C@@H](C)O)C(=O)O
IC50: 27300 nM

CC(C)C[C@H](NC(=O)[C@H](C)N)C(=O)N[C@@H](CCC(=O)O)C(=O)NCC(=O)N[C@@H](CO)C(=O)N[C@@H](CC(C)C)C(=O)N[C@@H](CCC(N)=O)C(=O)N[C@@H](CCCCN)C(=O)N[C@@H](CCCNC(N)=O)C(=O)O (H-ALEGSLQK[Cit]-OH; N-terminus and C-terminus assumed)
IC50 [4]: > 40000 nM

CC(C)C[C@H](NC(=O)[C@H](C)N)C(=O)N[C@@H](CCC(=O)O)C(=O)NCC(=O)N[C@@H](CO)C(=O)N[C@@H](CC(C)C)C(=O)N[C@@H](CCC(N)=O)C(=O)N[C@@H](CCCCN)C(=O)N[C@@H](CCCNC(N)=O)C(=O)NCC(=O)O (H-ALEGSLQK[Cit]G-OH; N-terminus and C-terminus assumed)
IC50 [4]: > 40000 nM

CSCC[C@H](NC(=O)[C@H](Cc1c[nH]c2ccccc12)NC(=O)[C@H](CC(C)C)NC(=O)[C@H](C)N)C(=O)N[C@@H](CCCNC(N)=O)C(=O)N[C@@H](CC(C)C)C(=O)N[C@@H](CC(C)C)C(=O)N1CCC[C@H]1C(=O)N[C@@H](CC(C)C)C(=O)O (H-ALWM[Cit]LLPL-OH)
IC50 [3]: 28 nM

CSCC[C@H](NC(=O)[C@H](Cc1c[nH]c2ccccc12)NC(=O)[C@H](CC(C)C)NC(=O)[C@H](C)N)C(=O)N[C@@H](CCCNC(N)=O)C(=O)N[C@@H](CC(C)C)C(=O)N[C@@H](CC(C)C)C(=O)N1CCC[C@H]1C(=O)N[C@@H](CC(C)C)C(=O)N[C@@H](CC(C)C)C(=O)O (H-ALWM[Cit]LLPLL-OH)
IC50 [3]: 69 nM

C[C@@H](O)[C@H](NC(=O)[C@H](Cc1ccc(O)cc1)NC(=O)[C@H](Cc1ccccc1)NC(=O)[C@H](Cc1ccccc1)NC(=O)CNC(=O)[C@H](CCCNC(N)=O)NC(=O)[C@H](CCC(=O)O)NC(=O)CNC(=O)[C@@H](N)CS)C(=O)O (H-CGE[Cit]GFFYT-OH; N-terminus and C-terminus assumed)
IC50 [4]: > 40000 nM

C[C@@H](O)[C@H](NC(=O)[C@H](Cc1ccc(O)cc1)NC(=O)[C@H](Cc1ccccc1)NC(=O)[C@H](Cc1ccccc1)NC(=O)CNC(=O)[C@H](CCCNC(N)=O)NC(=O)[C@H](CCC(=O)O)NC(=O)CNC(=O)[C@@H](N)CS)C(=O)N1CCC[C@H]1C(=O)O (H-CGE[Cit]GFFYTP-OH; N-terminus and C-terminus assumed)
IC50 [4]: > 40000 nM

CC(C)C[C@H](NC(=O)[C@H](C)NC(=O)[C@@H](N)CCC(=O)O)C(=O)N[C@@H](Cc1ccc(O)cc1)C(=O)N[C@@H](CC(C)C)C(=O)N[C@H](C(=O)N[C@@H](CS)C(=O)NCC(=O)N[C@@H](CCC(=O)O)C(=O)N[C@@H](CCCNC(N)=O)C(=O)O)C(C)C (H-EALYLVCGE[Cit]-OH)
IC50: 3100 nM

CC[C@H](C)[C@H](NC(=O)CNC(=O)[C@H](CCCNC(N)=O)NC(=O)[C@H](CCCCN)NC(=O)[C@H](CCC(N)=O)NC(=O)[C@H](CC(C)C)NC(=O)[C@H](CO)NC(=O)CNC(=O)[C@@H](N)CCC(=O)O)C(=O)O (H-EGSLQK[Cit]GI-OH; N-terminus and C-terminus assumed)
IC50 [4]: > 40000 nM

CC[C@H](C)[C@H](NC(=O)CNC(=O)[C@H](CCCNC(N)=O)NC(=O)[C@H](CCCCN)NC(=O)[C@H](CCC(N)=O)NC(=O)[C@H](CC(C)C)NC(=O)[C@H](CO)NC(=O)CNC(=O)[C@@H](N)CCC(=O)O)C(=O)N[C@H](C(=O)O)C(C)C (H-EGSLQK[Cit]GIV-OH; N-terminus and C-terminus assumed)
IC50 [4]: > 40000 nM

C[C@@H](O)[C@H](NC(=O)[C@H](Cc1ccc(O)cc1)NC(=O)[C@H](Cc1ccccc1)NC(=O)[C@H](Cc1ccccc1)NC(=O)CNC(=O)[C@H](CCCNC(N)=O)NC(=O)[C@@H](N)CCC(=O)O)C(=O)N1CCC[C@H]1C(=O)N[C@@H](CCCCN)C(=O)O (H-E[Cit]GFFYTPK-OH)
IC50 [5]: 38100 nM

C[C@@H](O)[C@H](NC(=O)[C@H](CCCCN)NC(=O)[C@@H]1CCCN1C(=O)[C@@H](NC(=O)[C@H](Cc1ccc(O)cc1)NC(=O)[C@H](Cc1ccccc1)NC(=O)[C@@H](N)Cc1ccccc1)[C@@H](C)O)C(=O)N[C@@H](CCCNC(N)=O)C(=O)N[C@@H](CCCNC(N)=O)C(=O)O (H-FFYTPKT[Cit][Cit]-OH; N-terminus and C-terminus assumed)
IC50 [4]: > 40000 nM

C[C@@H](O)[C@H](NC(=O)[C@H](CCCCN)NC(=O)[C@@H]1CCCN1C(=O)[C@@H](NC(=O)[C@H](Cc1ccc(O)cc1)NC(=O)[C@H](Cc1ccccc1)NC(=O)[C@@H](N)Cc1ccccc1)[C@@H](C)O)C(=O)N[C@@H](CCCNC(N)=O)C(=O)N[C@@H](CCCNC(N)=O)C(=O)N[C@@H](CCC(=O)O)C(=O)O (H-FFYTPKT[Cit][Cit]E-OH)
IC50 [5]: 28300 nM

C[C@@H](O)[C@H](NC(=O)[C@H](CCCCN)NC(=O)[C@@H]1CCCN1C(=O)[C@@H](NC(=O)[C@H](Cc1ccc(O)cc1)NC(=O)[C@@H](N)Cc1ccccc1)[C@@H](C)O)C(=O)N[C@@H](CCCNC(N)=O)C(=O)N[C@@H](CCCNC(N)=O)C(=O)N[C@@H](CCC(=O)O)C(=O)O (H-FYTPKT[Cit][Cit]E-OH; N-terminus and C-terminus assumed)
IC50 [4]: > 40000 nM

C[C@H](NC(=O)[C@H](CCC(=O)O)NC(=O)[C@H](CCCNC(N)=O)NC(=O)[C@H](CCCNC(N)=O)NC(=O)[C@@H](NC(=O)[C@H](CCCCN)NC(=O)[C@@H]1CCCN1C(=O)[C@@H](NC(=O)[C@H](Cc1ccc(O)cc1)NC(=O)[C@@H](N)Cc1ccccc1)[C@@H](C)O)[C@@H](C)O)C(=O)O (H-FYTPKT[Cit][Cit]EA-OH; N-terminus and C-terminus assumed)
IC50 [4]: > 40000 nM

C[C@@H](O)[C@H](NC(=O)[C@H](Cc1ccc(O)cc1)NC(=O)[C@H](Cc1ccccc1)NC(=O)[C@H](Cc1ccccc1)NC(=O)CNC(=O)[C@H](CCCNC(N)=O)NC(=O)[C@H](CCC(=O)O)NC(=O)CN)C(=O)N1CCC[C@H]1C(=O)O (H-GE[Cit]GFFYTP-OH; N-terminus and C-terminus assumed)
IC50 [4]: > 40000 nM

CC[C@H](C)[C@H](NC(=O)CNC(=O)[C@H](CCCNC(N)=O)NC(=O)[C@H](CCCCN)NC(=O)[C@H](CCC(N)=O)NC(=O)[C@H](CC(C)C)NC(=O)[C@H](CO)NC(=O)CN)C(=O)N[C@H](C(=O)O)C(C)C (H-GSLQK[Cit]GIV-OH; N-terminus and C-terminus assumed)
IC50 [4]: > 40000 nM
